Measured values from PubChem BioAssay (NCI).
Several values for one entry are separate records, joined by “and”; a condition that tells them apart may be missing. Equal entries are not always repeated.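 Following 48 hours of exposure in 96-well plates, responses at five concentrations were used to interpolate endpoints linearly. GI50: concentration for 50% inhibition of growth. TGI: total growth inhibition.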

Legend:
Assay in all cases: NCI-60 cell line screen, 48 h
HS 578T breast = tested on: HS 578T breast
MOLT-4 leukemia = tested on: MOLT-4 leukemia
LOX IMVI melanoma = tested on: LOX IMVI melanoma
OVCAR-3 ovarian = tested on: OVCAR-3 ovarian
UO-31 renal = tested on: UO-31 renal
U251 CNS = tested on: U251 CNS
MDA-MB-231 breast = tested on: MDA-MB-231 breast

SMILES	GI50 (HS 578T breast)	TGI (HS 578T breast)	GI50 (MOLT-4 leukemia)	TGI (MOLT-4 leukemia)	GI50 (LOX IMVI melanoma)	TGI (LOX IMVI melanoma)	GI50 (OVCAR-3 ovarian)	TGI (OVCAR-3 ovarian)	GI50 (UO-31 renal)	TGI (UO-31 renal)	GI50 (U251 CNS)	TGI (U251 CNS)	GI50 (MDA-MB-231 breast)	TGI (MDA-MB-231 breast)
CC12CCC3C(CC=C4CC(O)CCC43C)C1C/C(=C\N1CCCC1)C2=O (stereo not drawn)	60.8 µM	> 100 µM	> 100 µM	> 100 µM	> 100 µM	> 100 µM	42.6 µM	> 100 µM	67.2 µM	> 100 µM	> 100 µM	> 100 µM	40.8 µM	> 100 µM
CCCC1c2c(ccc3ccccc23)Oc2ccc3ccccc3c21		> 100 µM		> 100 µM		> 100 µM		> 100 µM		> 100 µM		> 100 µM		> 100 µM
Oc1ccc(Cc2ccc(O)c3ncccc23)c2cccnc12	0.0365 µM	> 100 µM	0.231 µM	> 100 µM	0.0402 µM	> 100 µM	0.138 µM	> 100 µM	0.0322 µM	> 100 µM	0.0355 µM	> 100 µM	0.0487 µM	> 100 µM
O=Cc1c(-c2cc(O)ccc2O)nc2sccn12	35.7 µM	> 100 µM	2.52 µM	11.5 µM	8.94 µM	33.5 µM	1.6 µM	6.47 µM	1.05 µM	2.38 µM	18.8 µM	47 µM	12 µM	31.4 µM
COc1ccccc1-[n+]1cc(-c2ccc(-c3ccccc3)cc2)n2c1CCCCC2	1.07 µM	31.8 µM	0.292 µM	3.97 µM	0.322 µM	8.1 µM	0.233 µM	12.4 µM	2.19 µM	11.1 µM	0.383 µM	15.7 µM	0.276 µM	2.39 µM
COc1cc(Nc2nc3cc(N)cc(N)c3nc2-c2ccccc2)cc(OC)c1	10.9 µM	63.8 µM			15.2 µM	50.6 µM	3.9 µM	20.1 µM	8.87 µM	45 µM	22.9 µM	> 100 µM	6.5 µM	34.3 µM
COP(=O)(OC)C(NC(c1ccccc1)c1ccccc1)c1ccc2c(c1)OCO2 (stereo not drawn)	27.4 µM	59.9 µM	7.85 µM	29.4 µM	16.4 µM	31.4 µM	22.1 µM	50.2 µM	21.8 µM	53.9 µM	30.8 µM	> 100 µM	14 µM	37.9 µM
O=c1c2ccccc2c2ccccc2c(=O)n1-c1cc2c3ccccc3ccc2c2ccccc12		> 100 µM				> 100 µM		> 100 µM		> 100 µM		> 100 µM		> 100 µM
Nc1ccc2c(SCCSc3c4ccccc4nc4cc(N)ccc34)c3ccccc3nc2c1		> 100 µM		39.3 µM		> 100 µM		> 100 µM		> 100 µM		> 100 µM		> 100 µM
c1ccc(Cc2nc3ccc(Nc4ncnc5ccccc45)cc3[nH]2)cc1	> 25 µM	> 25 µM	> 25 µM	> 25 µM	17.3 µM	> 25 µM	> 25 µM	> 25 µM	8.98 µM	> 25 µM	> 25 µM	> 25 µM	> 25 µM	> 25 µM
COc1cc2oc(=O)ccc2cc1C1OC(=O)C2OC21C (stereo not drawn)		> 100 µM		> 100 µM		> 100 µM		> 100 µM		> 100 µM		> 100 µM		> 100 µM
C[C@@H]1C=C(CCCCCCCCCCC[C@H](O)[C@@H]2CCC(=O)O2)C(=O)O1			21.6 µM	42.6 µM			16.4 µM	44.7 µM	20.1 µM	55.6 µM	24.5 µM	81.7 µM	19.4 µM	88.7 µM
CSc1nc2c(c(=O)[nH]1)N=C1c3ccccc3C(=O)C1C(c1ccc(F)cc1)N2 (stereo not drawn)	5.85 µM	43.6 µM	19.5 µM	> 100 µM	8.78 µM	30 µM	3.38 µM	12.5 µM	16.3 µM	> 100 µM	5.43 µM	19.3 µM	12.6 µM	> 100 µM
Cc1c(C#N)cccc1-c1cc(-c2cn(Cc3cccc(C(C)(C)O)n3)nn2)nc(N)n1	25.6 µM	> 100 µM	21.3 µM	> 100 µM	28.2 µM	> 100 µM	17.6 µM	> 100 µM	10.7 µM	> 100 µM	39.8 µM	> 100 µM	15.7 µM	> 100 µM
O=C(O)C(=Cc1ccnc2ccccc12)C(=O)O		> 100 µM		> 100 µM		> 100 µM		> 100 µM				> 100 µM		> 100 µM
Cc1ccc2c(c1)nc(C(=O)c1ccco1)c(C(F)(F)F)[n+]2[O-]	2.33 µM	5.76 µM	> 100 µM	> 100 µM	> 100 µM	> 100 µM	> 100 µM	> 100 µM	47.2 µM	> 100 µM	> 100 µM	> 100 µM	> 100 µM	> 100 µM
COCCn1cc(-c2csc(-c3c[nH]c4ccccc34)n2)c2cccnc21	9.14 µM	> 100 µM			3.96 µM	> 100 µM	2.94 µM	> 100 µM	4.15 µM	> 100 µM	6.12 µM	> 100 µM	5.05 µM	> 100 µM
CC(C)(C)N1CCC1C(N)=O (stereo not drawn)	> 100 µM	> 100 µM	> 100 µM	> 100 µM	> 100 µM	> 100 µM	> 100 µM	> 100 µM	> 100 µM	> 100 µM	> 100 µM	> 100 µM	> 100 µM	> 100 µM
CC(=O)Nc1ccc(/C=C/[N+](=O)[O-])cc1		32.6 µM		4.37 µM		3.91 µM		10.7 µM		4.58 µM		11.6 µM		5.12 µM
Nc1ccccc1C#C/C=C\C#Cc1ccccc1C(F)(F)F	1.26 µM	25.2 µM	> 61.3 µM	> 100 µM	0.441 µM	11.5 µM	0.673 µM	1.89 µM	4.08 µM	23.4 µM	0.621 µM	15.7 µM	0.274 µM	2.73 µM

SMILES	GI50 (HS 578T breast)	TGI (HS 578T breast)	GI50 (MOLT-4 leukemia)	TGI (MOLT-4 leukemia)	GI50 (LOX IMVI melanoma)	TGI (LOX IMVI melanoma)	GI50 (OVCAR-3 ovarian)	TGI (OVCAR-3 ovarian)	GI50 (UO-31 renal)	TGI (UO-31 renal)	GI50 (U251 CNS)	TGI (U251 CNS)	GI50 (MDA-MB-231 breast)	TGI (MDA-MB-231 breast)
O=C(/C=C/c1cccnc1)NCCCCC1CCN(C(=O)c2ccccc2)CC1	> 100 µM	> 100 µM	31.1 µM and 21.7 µM	> 100 µM	> 100 µM	> 100 µM	48.5 µM and 6.22 µM	> 100 µM	> 100 µM	> 100 µM		> 100 µM	> 100 µM	> 100 µM
CCN(Cc1cccc(OC)c1)c1ccc(CO)c(Cl)c1	18.3 µM	61.9 µM	21.2 µM	> 71.9 µM	14.5 µM	27.9 µM	0.477 µM	4.34 µM	8.4 µM	45.1 µM	0.88 µM	19.9 µM	14.9 µM	44 µM
OC1(C(O)(c2ccc(-c3ccccc3)cc2)c2ccc(-c3ccccc3)cc2)CCCCC1		> 100 µM		> 100 µM		> 100 µM		> 100 µM		> 100 µM		> 100 µM		> 100 µM
CCN(CC)c1ccc(/C=C\c2cc(C)c3cc(C)ccc3n2)cc1	5.32 µM	48.4 µM	6.12 µM	> 100 µM	4.29 µM	> 100 µM	3.24 µM	12.4 µM	6.97 µM	> 100 µM	5.35 µM	> 100 µM	16.2 µM	> 100 µM
CC[C@]1(O)CC2CN(CCc3c([nH]c4ccccc34)[C@@](C(=O)OC)(c3cc4c(cc3OC)N(C)[C@H]3[C@@](O)(C(=O)OC)[C@H](OC(C)=O)[C@]5(CC)C=CCN6CC[C@]43[C@@H]65)C2)C1 (stereo partly drawn)	< 0.005 µM	10.2 µM	< 0.005 µM	0.721 µM	< 0.005 µM	8.01 µM	< 0.005 µM	< 0.005 µM	0.511 µM	15.9 µM	< 0.005 µM	6.5 µM	< 0.005 µM	0.417 µM
O=C1CCC(Cc2ccc(Cl)cc2Cl)C(=O)N1 (stereo not drawn)		> 100 µM		> 100 µM		> 100 µM		> 100 µM		> 100 µM		> 100 µM		> 100 µM
OCc1cn(Cc2cccc(Cl)c2)c2ccccc12	9.27 µM	33.7 µM	10.6 µM	44.4 µM	6.71 µM	25.8 µM	0.128 µM	1.1 µM	5.01 µM	41.4 µM	0.865 µM	22.6 µM	8.37 µM	31.7 µM
Cc1c(N=Nc2ccc([N+](=O)[O-])cc2)nc2scc(-c3ccccc3)n12		> 100 µM		> 100 µM		> 100 µM		> 100 µM		> 100 µM		> 100 µM		> 100 µM
C1CC[N-]CC1.C1CC[N-]CC1.C1CC[N-]CC1.C1CC[N-]CC1.[Cl][Rh][Cl]	3.95 µM	54.8 µM	13.7 µM	> 100 µM	10.2 µM	> 100 µM	10.6 µM	41.3 µM	34.4 µM	> 100 µM	4.72 µM	23.8 µM	21.5 µM	> 100 µM
NC(=O)c1cnc(N[C@@H]2CCCC[C@@H]2N)nc1Nc1cccc(-n2nccn2)c1	3.37 µM	20.7 µM	2.94 µM	12.7 µM	2.11 µM	6.12 µM	5.94 µM	18.4 µM	3.32 µM	14.7 µM	5.87 µM	18.2 µM	4.13 µM	17.3 µM
COc1ccc(/C=C/C(=O)c2cc3c(N)c(C(=O)Nc4ccccc4Cl)sc3nc2C)cc1	0.937 µM	4.56 µM	4.59 µM	> 50 µM	8.11 µM	> 50 µM	2.11 µM	16.3 µM	1.17 µM	3.94 µM	3.36 µM	29.6 µM	2.22 µM	20.3 µM
Cc1cn(C2CC(F)C(CO)O2)c(=O)[nH]c1=O (stereo not drawn)	> 100 µM	> 100 µM	> 100 µM	> 100 µM	> 100 µM	> 100 µM	> 100 µM	> 100 µM	> 100 µM	> 100 µM			> 100 µM	> 100 µM
CCOP(=O)(OCC)C(NC(c1ccccc1)c1ccccc1)c1ccccc1 (stereo not drawn)	1.89 µM	13.5 µM	0.0995 µM	3.47 µM	14 µM	28.5 µM	3.66 µM	18.9 µM	14.9 µM	30.2 µM	14.5 µM	28.5 µM	10.6 µM	26.3 µM
OCCCCC#Cc1ccccc1C#Cc1ccccc1	15.6 µM	39.6 µM	17.8 µM	63.8 µM					28.4 µM	> 100 µM	11.5 µM	23.8 µM	4.29 µM	14.1 µM
CC1=C([Se]CC(OC(=O)CC[Se]c2ccccc2)C(=O)NCCCCCC(=O)OCc2ccccc2)C(=O)c2ccccc2C1=O (stereo not drawn)	2.47 µM	34.2 µM	3.61 µM	31.2 µM	1.81 µM	4.28 µM	1.83 µM	4.71 µM	2.07 µM	7.41 µM	1.89 µM	4.07 µM	1.95 µM	4.94 µM
O=c1cccc(C#CC#C[C@H]2O[C@@H]2CO)o1	2.91 µM	9.69 µM	0.154 µM	> 100 µM	0.31 µM	0.901 µM	0.286 µM	0.689 µM	2.59 µM	6.29 µM	0.355 µM	0.958 µM	0.419 µM	1.02 µM
CCCC[C@H]1C(=O)O[C@H](C)[C@H](NC(=O)c2cccc(NC=O)c2O)C(=O)O[C@@H](C)[C@@H]1OC(=O)CC(C)C		37.7 µM		53 µM		19 µM		24.6 µM		33.2 µM		21.9 µM		32.8 µM
Oc1ccc(/C=N\Nc2ccccn2)c(O)c1	4.99 µM	> 100 µM	0.382 µM	10.6 µM	1.96 µM	> 100 µM	1.77 µM	> 100 µM	0.241 µM	0.719 µM	0.773 µM	> 100 µM		
N#CC(=S)Nc1cccc(Cl)c1				> 100 µM		> 100 µM		56.4 µM				> 100 µM		> 100 µM
